Where a name gives a salt, the structure may show the parent alone.
Experiments:
[1] = Measurement of DHAS concentration in plasma of patients with CFS given the injection intravenously; type: in vivo; conditions: human, iv, 100 mg, 100 mg intravenously daily for 14 days; for concentration at 13 h: 13 hours after administration; for concentration at 48 h / concentration at 72 h / concentration at 120 h / concentration at 192 h / concentration at 264 h / concentration at 336 h: before administration; for concentration at 72 h: 3 days; for concentration at 120 h: 5 days; for concentration at 192 h: 8 days; for concentration at 264 h: 11 days; for concentration at 336 h: 14 days
Description: (§1) An injection containing 100 mg of a test compound was intravenously administered to two patients with CFS (A, B), continuously, for 14 days. The measurement of DHAS concentration in plasma was conducted before administration and 13 hours after administration with respect to the first and second days, while the measurement was conducted before administration with regard to the third, fifth, eighth, eleventh and fourteenth days. On the fourteenth day from the day on which first administration was conducted, the patients were questioned about lassitude, weakness and psychoneurotic symptom.

^51Cr-labelled K562 = experiment: Natural killer (NK) activity of patient B, cytotoxic activity against 51Cr-labelled target cells; type: in vivo, human
Description: as §1
With regard to the patient B, a natural killer (NK) activity was measured after administration on the first day and before administration on the fifteenth day. The measurement of the NK activity was conducted in accordance with the method described in Later Biological Experimental Course, No. 5, Process for Study of Immunobiochemistry (Incorporation of The Japanese Biochemistry Society ed., published by Tokyo Kagaku Dojin Co.), page 186. That is, the NK activity was measured by using, as an indication, a cytotoxic activity determined by using ^51Cr-labelled K562 as a target cell. Incidentally, a ratio of effector cell to target cell (E/T ratio) was set at 10:1 or 20:1.

patients with CFS = experiment: Questioning of patients with CFS about lassitude, weakness and psychoneurotic symptom; type: in vivo, human; conditions: 100 mg intravenously daily for 14 days
Description: as §1

SMILES: C[C@]12CC[C@H](OS(=O)(=O)O)CC1=CC[C@@H]1[C@@H]2CC[C@]2(C)C(=O)CC[C@@H]12 [Sodium salt of DHAS, dehydroepiandrosterone sulfate]
- concentration at 13 h ([1]; patient A, 1 day): 6360 ng/mL
- concentration at 13 h ([1]; patient A, 2 days): 6340 ng/mL
- concentration at 48 h ([1]; patient A, 2 days): 2460 ng/mL
- concentration at 72 h ([1]; patient A): 2460 ng/mL
- concentration at 120 h ([1]; patient A): 2160 ng/mL
- concentration at 192 h ([1]; patient A): 2140 ng/mL
- concentration at 264 h ([1]; patient A): 2110 ng/mL
- concentration at 336 h ([1]; patient A): 3000 ng/mL
- concentration at 13 h ([1]; patient B, 1 day): 8900 ng/mL
- concentration at 13 h ([1]; patient B, 2 days): 7650 ng/mL
- concentration at 48 h ([1]; patient B, 2 days): 2680 ng/mL
- concentration at 72 h ([1]; patient B): 2820 ng/mL
- concentration at 120 h ([1]; patient B): 4140 ng/mL
- concentration at 192 h ([1]; patient B): 2050 ng/mL
- concentration at 264 h ([1]; patient B): 2480 ng/mL
- concentration at 336 h ([1]; patient B): 2800 ng/mL
- NK activity (%) (^51Cr-labelled K562; E/T ratio 10:1, after administration on the fourteenth day (before administration on the first day: 7.2)): 12.1%
- NK activity (%) (^51Cr-labelled K562; E/T ratio 20:1, after administration on the fourteenth day (before administration on the first day: 13.7)): 18.5%
- Degree of improvement on the fourteenth day Lassitude (patients with CFS; patient A): improved
- Degree of improvement on the fourteenth day Psychoneurotic symptom (patients with CFS; patient A): Improved
- Degree of improvement on the fourteenth day Weakness (patients with CFS; patient A): Improved
- Degree of improvement on the fourteenth day Lassitude (patients with CFS; patient B): improved
- Degree of improvement on the fourteenth day Psychoneurotic symptom (patients with CFS; patient B): Improved
- Degree of improvement on the fourteenth day Weakness (patients with CFS; patient B): Improved

From EP0979653A1, “REMEDY FOR CHRONIC FATIGUE SYNDROME” (KANEBO, LTD., priority 1996, dated 1998)
